Laboratory results: patent US20250163038A1, “CBL-B MODULATORS AND USES THEREOF” (Nimbus Clio, Inc., priority 2021, published 2025)

What was measured:
[1] = biological target: Recombinant human Cbl-b (aa 36-427) (Homo sapiens, UniProt Q13191); test: Cbl-b Biochemical Assay (TR-FRET); conditions: read-out: TR-FRET hCbl-b IC50
[2] = tested on: Jurkat (clone E6-1) cells with NFAT luciferase reporter; test: Jurkat reporter assay (NFAT Luciferase); assay type: cell-based; conditions: Homo sapiens; Jurkat NFAT luciferase reporter cells, anti-CD3 stimulation, 6 hr; read-out: Jurkat NFAT EC50
[3] = biological target: T1, Recombinant human c-Cbl (aa 47-435) (Homo sapiens, UniProt P22681); test: c-Cbl Biochemical Assay (TR-FRET); conditions: hc-Cbl Biochemical Assay (TR-FRET); read-out: TR-FRET hcCbl IC50
T1 sequence (P22681 47-435): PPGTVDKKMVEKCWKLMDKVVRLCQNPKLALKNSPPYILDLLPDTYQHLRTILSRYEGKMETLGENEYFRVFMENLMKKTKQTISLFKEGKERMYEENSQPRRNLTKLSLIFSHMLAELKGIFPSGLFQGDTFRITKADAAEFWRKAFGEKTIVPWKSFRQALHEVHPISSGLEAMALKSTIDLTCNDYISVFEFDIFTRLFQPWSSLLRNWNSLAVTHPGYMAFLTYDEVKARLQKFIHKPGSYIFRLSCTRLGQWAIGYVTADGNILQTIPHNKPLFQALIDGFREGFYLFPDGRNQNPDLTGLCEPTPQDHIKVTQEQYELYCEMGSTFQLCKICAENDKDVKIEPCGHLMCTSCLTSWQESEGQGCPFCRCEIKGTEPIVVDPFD

Recombinant human Cbl-b (aa 36-427), sequence (Q13191 36-427): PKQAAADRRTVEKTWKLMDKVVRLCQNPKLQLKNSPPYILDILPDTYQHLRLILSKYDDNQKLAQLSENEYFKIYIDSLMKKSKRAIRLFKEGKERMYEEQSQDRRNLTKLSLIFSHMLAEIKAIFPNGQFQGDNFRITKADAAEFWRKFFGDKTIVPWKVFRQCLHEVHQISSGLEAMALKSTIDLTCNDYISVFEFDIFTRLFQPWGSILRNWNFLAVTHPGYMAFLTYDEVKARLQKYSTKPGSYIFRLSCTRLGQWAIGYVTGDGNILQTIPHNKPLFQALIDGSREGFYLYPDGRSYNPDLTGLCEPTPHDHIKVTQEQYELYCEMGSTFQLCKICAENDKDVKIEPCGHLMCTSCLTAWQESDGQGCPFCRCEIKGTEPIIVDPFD

| Compound | IC50 [1] [µM] | EC50 [2] [µM] | IC50 [3] [µM] |
| --- | --- | --- | --- |
| Cn1cnnc1-c1cc(F)ccc1-c1cccc(-c2nc3cc(CNCC4(F)CCC4)cc(C(F)(F)F)c3o2)c1 [HW-2, 1-(2-(4′-Fluoro-2′-(4-methyl-4H-1,2,4-triazol-3-yl)-[1,1′-biphenyl]-3-yl)-7-(trifluoromethyl)benzo[d]oxazol-5-yl)-N-((1-fluorocyclobutyl)methyl)methanamine] | < 0.2 | 0.2 to 1 | < 0.2 |
| Cn1cnnc1-c1cc(F)ccc1-c1cccc(-c2nc3cc(CN[C@@H]4CCC[C@@H]4O)c(F)c(F)c3o2)c1 [HX-8, (1S,2R)-2-(((6,7-Difluoro-2-(4′-fluoro-2′-(4-methyl-4H-1,2,4-triazol-3-yl)-[1,1′-biphenyl]-3-yl)benzo[d]oxazol-5-yl)methyl)amino)cyclopentan-1-ol] | < 0.2 | < 0.2 | < 0.2 |
| Cc1cc(CN(C)[C@@H]2CCC[C@@H]2O)cc2nc(-c3cccc(-c4ccc(F)cc4-c4nncn4C)c3)oc12 [HY-3, (1S,2R)-2-(((2-(4′-Fluoro-2′-(4-methyl-4H-1,2,4-triazol-3-yl)-[1,1′-biphenyl]-3-yl)-7-methylbenzo[d]oxazol-5-yl)methyl)(methyl)amino)cyclopentan-1-ol] | < 0.2 | 0.2 to 1 | < 0.2 |
| Cn1cnnc1-c1cc(F)ccc1-c1cccc(-c2nc3cc(NCCN4CCC4)cc(C(F)(F)F)c3o2)c1 [HZ-2, N-(2-(Azetidin-1-yl)ethyl)-2-(4′-fluoro-2′-(4-methyl-4H-1,2,4-triazol-3-yl)-[1,1′-biphenyl]-3-yl)-7-(trifluoromethyl)benzo[d]oxazol-5-amine] | < 0.2 | 1 to 10 | 0.2 to 1 |
| CN(Cc1cc(C(F)(F)F)c2oc(-c3cccc(-c4ccc(F)cc4-c4nncn4C)c3)nc2c1)CC1(O)CCC1 [IA-1, 1-((((2-(4′-Fluoro-2′-(4-methyl-4H-1,2,4-triazol-3-yl)-[1,1′-biphenyl]-3-yl)-7-(trifluoromethyl)benzo[d]oxazol-5-yl)methyl)(methyl)amino)methyl)cyclobutan-1-ol] | < 0.2 | < 0.2 | < 0.2 |
| Cn1cnnc1-c1cc(F)ccc1-c1cccc(-c2nc3nc(CN[C@@H]4CCC[C@@H]4O)ccc3o2)c1 [IB-7, (1S,2R)-2-(((2-(4′-Fluoro-2′-(4-methyl-4H-1,2,4-triazol-3-yl)-[1,1′-biphenyl]-3-yl)oxazolo[4,5-b]pyridin-5-yl)methyl)amino)cyclopentan-1-ol] | < 0.2 | 1 to 10 | 0.2 to 1 |
| Cc1cc(CNCC2(F)CCC2)cc2nc(-c3cccc(-c4ccc(F)cc4-c4nncn4C)c3)oc12 [IC-1, 1-(2-(4′-Fluoro-2′-(4-methyl-4H-1,2,4-triazol-3-yl)-[1,1′-biphenyl]-3-yl)-7-methylbenzo[d]oxazol-5-yl)-N-((1-fluorocyclobutyl)methyl)methanamine] | < 0.2 | 0.2 to 1 | < 0.2 |
| CN(Cc1cc(C(F)(F)F)c2[nH]c(-c3cccc(-c4ccc(F)cc4-c4nncn4C)c3)nc2c1)[C@@H]1CCC[C@@H]1O [ID-3, (1S,2R)-2-(((2-(4′-Fluoro-2′-(4-methyl-4H-1,2,4-triazol-3-yl)-[1,1′-biphenyl]-3-yl)-7-(trifluoromethyl)-1H-benzo[d]imidazol-5-yl)methyl)(methyl)amino)cyclopentan-1-ol] | < 0.2 | < 0.2 | < 0.2 |
| CN(Cc1cc(C(F)(F)F)c2oc(-c3cccc(-c4ccc(F)cc4-c4nncn4C)c3)nc2c1)CC1CCC1 [IE-1, 1-Cyclobutyl-N-((2-(4′-fluoro-2′-(4-methyl-4H-1,2,4-triazol-3-yl)-[1,1′-biphenyl]-3-yl)-7-(trifluoromethyl)benzo[d]oxazol-5-yl)methyl)-N-methylmethanamine] | < 0.2 | 0.2 to 1 | 0.2 to 1 |
| Cn1cnnc1-c1cc(F)ccc1-c1cccc(-c2nc3cc(NCCN4CC(F)(F)C4)cc(C(F)(F)F)c3o2)c1 [IF-2, N-(2-(3,3-Difluoroazetidin-1-yl)ethyl)-2-(4′-fluoro-2′-(4-methyl-4H-1,2,4-triazol-3-yl)-[1,1′-biphenyl]-3-yl)-7-(trifluoromethyl)benzo[d]oxazol-5-amine] | < 0.2 | 1 to 10 | 0.2 to 1 |
| O[C@H]1CCC[C@H]1NCc1cc(C(F)(F)F)c2oc(-c3cccc(-c4ccc(F)cc4-c4nnco4)c3)nc2c1 [IG-6, (1S,2R)-2-(((2-(4′-Fluoro-2′-(1,3,4-oxadiazol-2-yl)-[1,1′-biphenyl]-3-yl)-7-(trifluoromethyl)benzo[d]oxazol-5-yl)methyl)amino)cyclopentan-1-ol] | < 0.2 | 0.2 to 1 | < 0.2 |
| COc1cc(CN[C@@H]2CCC[C@@H]2O)cn2nc(-c3cccc(-c4ccc(F)cc4-c4nncn4C)c3)nc12 [IH-9, (1S,2R)-2-(((2-(4′-Fluoro-2′-(4-methyl-4H-1,2,4-triazol-3-yl)-[1,1′-biphenyl]-3-yl)-8-methoxy-[1,2,4]triazolo[1,5-a]pyridin-6-yl)methyl)amino)cyclopentan-1-ol] | < 0.2 | 0.2 to 1 | < 0.2 |
| CC(=O)NCc1cc(C(F)(F)F)c2oc(-c3cccc(-c4ccc(F)cc4-c4nncn4C)c3)nc2c1 [II-1, N-((2-(4′-Fluoro-2′-(4-methyl-4H-1,2,4-triazol-3-yl)-[1,1′-biphenyl]-3-yl)-7-(trifluoromethyl)benzo[d]oxazol-5-yl)methyl)acetamide] | 1 to 10 | 1 to 10 | 0.2 to 1 |
| Cc1cc(CNCC2(O)CCC2)cc2nc(-c3cccc(-c4ccc(F)cc4-c4nncn4C)c3)oc12 [IJ-1, 1-((((2-(4′-Fluoro-2′-(4-methyl-4H-1,2,4-triazol-3-yl)-[1,1′-biphenyl]-3-yl)-7-methylbenzo[d]oxazol-5-yl)methyl)amino)methyl)cyclobutan-1-ol] | < 0.2 | < 0.2 | < 0.2 |
| Cc1cc(CNCC(C)(C)O)cc2nc(-c3cccc(-c4ccc(F)cc4-c4nncn4C)c3)oc12 [IK-1, 1-(((2-(4′-Fluoro-2′-(4-methyl-4H-1,2,4-triazol-3-yl)-[1,1′-biphenyl]-3-yl)-7-methylbenzo[d]oxazol-5-yl)methyl)amino)-2-methylpropan-2-ol] | < 0.2 | < 0.2 | < 0.2 |
| Cn1cnnc1-c1cc(F)ccc1-c1cccc(-c2nc3cc(CN4C[C@@H]5C[C@H]4CO5)cc(C(F)(F)F)c3o2)c1 [IN-2, 5-(((1S,4S)-2-Oxa-5-azabicyclo[2.2.1]heptan-5-yl)methyl)-2-(4′-fluoro-2′-(4-methyl-4H-1,2,4-triazol-3-yl)-[1,1′-biphenyl]-3-yl)-7-(trifluoromethyl)benzo[d]oxazole] | 1 to 10 | 1 to 10 | 1 to 10 |
| Cn1cnnc1-c1cc(F)ccc1-c1cccc(-c2nc3cc(CN[C@@H]4CCC[C@@H]4O)c(F)cc3o2)c1 [IP-7, (1S,2R)-2-(((6-Fluoro-2-(4′-fluoro-2′-(4-methyl-4H-1,2,4-triazol-3-yl)-[1,1′-biphenyl]-3-yl)benzo[d]oxazol-5-yl)methyl)amino)cyclopentan-1-ol] | < 0.2 | < 0.2 | < 0.2 |
| Cc1cc(CN[C@@H]2CCC[C@@H]2O)c(F)c2nc(-c3cccc(-c4ccc(F)cc4-c4nncn4C)c3)oc12 [IQ-8, (1S,2R)-2-(((4-Fluoro-2-(4′-fluoro-2′-(4-methyl-4H-1,2,4-triazol-3-yl)-[1,1′-biphenyl]-3-yl)-7-methylbenzo[d]oxazol-5-yl)methyl)amino)cyclopentan-1-ol] | < 0.2 | < 0.2 | < 0.2 |
| COCCNCc1cc2nc(-c3cccc(-c4ccc(F)cc4-c4nncn4C)c3)oc2cc1F [IR-1, N-((6-Fluoro-2-(4′-fluoro-2′-(4-methyl-4H-1,2,4-triazol-3-yl)-[1,1′-biphenyl]-3-yl)benzo[d]oxazol-5-yl)methyl)-2-methoxyethan-1-amine] | < 0.2 | 0.2 to 1 | 0.2 to 1 |
| COCCNCc1cc(F)c2oc(-c3cccc(-c4ccc(F)cc4-c4nncn4C)c3)nc2c1 [IS-1, N-((7-Fluoro-2-(4′-fluoro-2′-(4-methyl-4H-1,2,4-triazol-3-yl)-[1,1′-biphenyl]-3-yl)benzo[d]oxazol-5-yl)methyl)-2-methoxyethan-1-amine] | < 0.2 | < 0.2 | < 0.2 |
| [2H]C([2H])([2H])N(Cc1cc(C(F)(F)F)c2oc(-c3cccc(-c4ccc(F)cc4-c4nncn4C)c3)nc2c1)[C@@H]1CCC[C@@H]1O [IT-1, (1S,2R)-2-(((2-(4′-Fluoro-2′-(4-methyl-4H-1,2,4-triazol-3-yl)-[1,1′-biphenyl]-3-yl)-7-(trifluoromethyl)benzo[d]oxazol-5-yl)methyl)(methyl-d3)amino)cyclopentan-1-ol] | < 0.2 | < 0.2 | < 0.2 |
| CO[C@H]1CCCN(Cc2cc(C(F)(F)F)c3oc(-c4cccc(-c5ccc(F)cc5-c5nncn5C)c4)nc3c2)C1 [IU-2, (S)-2-(4′-Fluoro-2′-(4-methyl-4H-1,2,4-triazol-3-yl)-[1,1′-biphenyl]-3-yl)-5-((3-methoxypiperidin-1-yl)methyl)-7-(trifluoromethyl)benzo[d]oxazole] | < 0.2 | 0.2 to 1 | < 0.2 |
